Results from publication PMC4490784, “Compensatory induction of MYC expression by sustained CDK9 inhibition via a BRD4-dependent mechanism” (eLife, 2015).

System: MYC protein in HeLa cells
Test: Immunoblotting of MYC protein in HeLa cell lysates
Assay type: cell-based, human
Settings: for effect on MYC induction by i-CDK9: pretreatment before i-CDK9
Protocol: Figure 3. Induction of MYC mRNA production in response to sustained inhibition of CDK9 by i-CDK9 and the requirement of MYC's natural genomic structure in this process. (A) The indicated tumor cell lines were treated with i-CDK9 (0.5 μM) for 2–16 hr and the MYC mRNA levels, which were divided by those in the DMSO-treated cells and averaged from three independent replicates of DNA microarray analysis, were shown as log2 values. (B) HeLa cells were treated with the indicated concentrations of i-CDK9 for 8 hr and the various proteins in the total cell lysates were detected by immunoblotting as indicated. Quantifications of the levels of MYC protein and Ser2-phosphoryalted Pol II (pSer2) in the lysates were shown above and below the immunoblots, respectively. […] The levels of the indicated proteins were examined by immunoblotting. (G) A HeLa-based cell line containing the stably transfected, doxycycline (Dox)-inducible MYC-F-expressing plasmid driven by the CMV promoter was pretreated with (+) or without (−) Dox prior to incubation with i-CDK9 or DMSO. MYC and MYC-F expressed from the endogenous MYC locus and the transfected plasmid, respectively, were detected by immunoblotting. DOI: http://dx.doi.org/10.7554/eLife.06535.007 Figure 3—figure supplement 1. Biphasic response of MYC mRNA production throughout the course of CDK9 inhibition by i-CDK9. DOI: http://dx.doi.org/10.7554/eLife.06535.008 [drawing 2] Figure 3—Figure supplement 2. […] DOI: http://dx.doi.org/10.7554/eLife.06535.009 [drawing 3] TEXT PRINTED IN THE PICTURE: (B) i-CDK9: Fold increase in MYC protein: 1.0 (i-CDK9 (μM): 0); Fold increase in MYC protein: 1.2 (i-CDK9 (μM): 0.01); Fold increase in MYC protein: 1.7 (i-CDK9 (μM): 0.03); Fold increase in MYC protein: 3.6 (i-CDK9 (μM): 0.1); Fold increase in MYC protein: 5.2 (i-CDK9 (μM): 0.3); Fold increase in MYC protein: 5.5 (i-CDK9 (μM): 1.0) | (C) i-CDK9: Fold increase in MYC protein: 1.0 (0.3 μM i-CDK9 (h): 0); Fold increase in MYC protein: 0.9 (0.3 μM i-CDK9 (h): 1); Fold increase in MYC protein: 1.1 (0.3 μM i-CDK9 (h): 2); Fold increase in MYC protein: 1.2 (0.3 μM i-CDK9 (h): 4); Fold increase in MYC protein: 3.3 (0.3 μM i-CDK9 (h): 8)
First, the induction of MYC protein level was confirmed in HeLa cells treated with i-CDK9. […] It took 1.0 µM i-CDK9 to cause up to 85% reduction in pSer2. In a separate time-course analysis, the 8-hr incubation with i-CDK9 (0.3 μM) induced the MYC level by 3.3-fold, whereas the same condition reduced the pSer2 level by only 40% (Figure 3C). Thus, MYC expression was highly responsive to i-CDK9 treatment and occurred at a time point earlier and drug concentration lower than those required to achieve a significant suppression of Ser2 phosphorylation on the Pol II CTD.

SMILES: CN1CC[C@H](c2c(O)cc(O)c3c(=O)cc(-c4ccccc4Cl)oc23)[C@H](O)C1 [Flavopiridol, flavopiridol, reference compound]
- MYC protein level (e.g. 4 hr, e.g. 0.1 μM): significantly elevated

SMILES: Cc1sc2c(c1C)C(c1ccc(Cl)cc1)=N[C@@H](CC(=O)OC(C)(C)C)c1nnc(C)n1-2 [JQ1, reference compound]
- effect on MYC induction by i-CDK9: completely abolished

SMILES: Cc1sc2c(c1C)C(c1ccc(Cl)cc1)=N[C@H](CC(=O)OC(C)(C)C)c1nnc(C)n1-2 [ctl., reference compound]
- effect on MYC induction by i-CDK9: ineffective
